Results published in publication PMC5448077, “Development of an orally available inhibitor of CLK1 for skipping a mutated dystrophin exon in Duchenne muscular dystrophy” (Scientific Reports, 2017).

Experiments:
Assay in all cases: biochemical
AKT3 = AKT3 (Homo sapiens, UniProt Q9Y243)
Protocol: (§1) These assays rely on the phosphorylation of small synthetic peptides developed for each kinase, and detect activity by changes in electrophoretic mobility (MSA assay) or by binding of a fluorescently labelled peptide to a large micro-particle and concomitant polarization increases (IMAP assay). Reaction conditions for each kinase are described in Supplementary Table S5. All kinase assays were carried out at Carna Biosciences (Kobe, Japan). The inhibitory map was constructed using Kinome Render[41]. Inhibitor (4×), substrate/ATP-Metal (4×), and kinase (2×) solutions were prepared with assay buffer (20 mM HEPES, 0.01% Triton X-100, 2 mM DTT, pH 7.5) and mixed in 384-well plates at room temperature for 1 or 5 h depending on the kinase. Reactions were stopped by the addition of termination buffer (QuickScout Screening Assist MSA; Carna Biosciences). The entire reaction mixture was then applied to a LabChip system (Perkin-Elmer, Waltham, MA, USA) and the product and substrate peptide peaks were separated and quantified, and then heights of product (P) and substrate (S) peptide peaks were calculated. The level of kinase activity was evaluated with the following equation: activity = P/(P + S).

ALK = ALK (Homo sapiens, UniProt Q9UM73)
Protocol: as §1

CDK2/CycE1 = CDK2/CycE1 (Homo sapiens, UniProt P24941)
Protocol: as §1

CDK3/CycE1 = CDK3/CycE1 (Homo sapiens, UniProt Q00526)
Protocol: as §1

CDK4/CycD3 = CDK4/CycD3 (Homo sapiens, UniProt P11802)
Protocol: as §1

CK2α2/β = target: T1, CK2α2/β (Homo sapiens, UniProt P19784)
T1 construct: gene CSNK2A2
Protocol: as §1

CaMK2α = target: T2, CaMK2α (Homo sapiens, UniProt Q9UQM7)
T2 construct: gene CAMK2A
Protocol: as §1

EGFR(L861Q) = EGFR(L861Q) (Homo sapiens, UniProt P00533, L861Q)
Protocol: as §1

EGFR(T790M) = EGFR(T790M) (Homo sapiens, UniProt P00533, T790M)
Protocol: as §1

EPHA3 = EPHA3 (Homo sapiens, UniProt P29320)
Protocol: as §1

EPHB2 = EPHB2 (Homo sapiens, UniProt P29323)
Protocol: as §1

FAK = target: T3, FAK (Homo sapiens, UniProt Q05397)
T3 construct: gene PTK2
Protocol: as §1

FGFR3(K650M) = FGFR3(K650M) (Homo sapiens, UniProt P22607, K650M)
Protocol: as §1

FMS = target: T4, FMS (Homo sapiens, UniProt P07333)
T4 construct: gene CSF1R
Protocol: as §1

HIPK1 = HIPK1 (Homo sapiens, UniProt Q86Z02)
Protocol: as §1

Haspin = Haspin (Homo sapiens, UniProt Q8TF76)
Protocol: as §1

IGF1R = IGF1R (Homo sapiens, UniProt P08069)
Protocol: as §1

INSR = INSR (Homo sapiens, UniProt P06213)
Protocol: as §1

JNK1 = target: T5, JNK1 (Homo sapiens, UniProt P45983)
T5 construct: gene MAPK8
Protocol: as §1

KIT(D816Y) = KIT(D816Y) (Homo sapiens, UniProt P10721, D816Y)
Protocol: as §1

LYNb = target: T6, LYNb (Homo sapiens, UniProt P07948)
T6 construct: gene LYN; isoform b
Protocol: as §1

MST4 = target: T7, MST4 (Homo sapiens, UniProt Q9P289)
T7 construct: gene STK26
Protocol: as §1

PAK5 = PAK5 (Homo sapiens, UniProt Q9P286)
Protocol: as §1

PIM2 = PIM2 (Homo sapiens, UniProt Q9P1W9)
Protocol: as §1

PKCθ = target: T8, PKCθ (Homo sapiens, UniProt Q04759)
T8 construct: gene PRKCQ
Protocol: as §1

PLK3 = PLK3 (Homo sapiens, UniProt Q9H4B4)
Protocol: as §1

QIK = target: T9, QIK (Homo sapiens, UniProt Q9H0K1)
T9 construct: gene SIK2
Protocol: as §1

SRC = SRC (Homo sapiens, UniProt P12931)
Protocol: as §1

TAOK2 = TAOK2 (Homo sapiens, UniProt Q9UL54)
Protocol: as §1

TIE2 = target: T10, TIE2 (Homo sapiens, UniProt Q02763)
T10 construct: gene TEK
Protocol: as §1

WNK3 = WNK3 (Homo sapiens, UniProt Q9BYP7)
Protocol: as §1

Chain of CDK3/CycE1 (Q00526 whole entry): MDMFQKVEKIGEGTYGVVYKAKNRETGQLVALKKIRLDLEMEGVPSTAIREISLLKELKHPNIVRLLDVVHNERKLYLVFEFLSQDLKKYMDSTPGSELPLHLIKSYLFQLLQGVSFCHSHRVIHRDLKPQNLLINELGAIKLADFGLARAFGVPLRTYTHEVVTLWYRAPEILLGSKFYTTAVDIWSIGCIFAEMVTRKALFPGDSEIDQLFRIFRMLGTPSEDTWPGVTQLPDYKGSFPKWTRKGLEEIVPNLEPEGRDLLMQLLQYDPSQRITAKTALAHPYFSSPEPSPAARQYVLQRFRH
Chain of CDK3/CycE1 (P24864 whole entry partner): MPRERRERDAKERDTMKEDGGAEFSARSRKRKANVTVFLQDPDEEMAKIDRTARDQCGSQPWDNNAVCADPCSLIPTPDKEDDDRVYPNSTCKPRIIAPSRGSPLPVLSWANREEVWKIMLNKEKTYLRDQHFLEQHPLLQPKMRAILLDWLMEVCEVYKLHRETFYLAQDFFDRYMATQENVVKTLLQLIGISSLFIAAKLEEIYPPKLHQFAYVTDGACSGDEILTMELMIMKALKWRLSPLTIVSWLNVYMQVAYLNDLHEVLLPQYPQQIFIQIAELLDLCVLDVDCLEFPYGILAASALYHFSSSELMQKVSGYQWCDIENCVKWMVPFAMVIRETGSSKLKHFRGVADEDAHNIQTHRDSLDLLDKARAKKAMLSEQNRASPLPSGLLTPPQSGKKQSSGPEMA
Chain of TAOK2 (Q9UL54 whole entry): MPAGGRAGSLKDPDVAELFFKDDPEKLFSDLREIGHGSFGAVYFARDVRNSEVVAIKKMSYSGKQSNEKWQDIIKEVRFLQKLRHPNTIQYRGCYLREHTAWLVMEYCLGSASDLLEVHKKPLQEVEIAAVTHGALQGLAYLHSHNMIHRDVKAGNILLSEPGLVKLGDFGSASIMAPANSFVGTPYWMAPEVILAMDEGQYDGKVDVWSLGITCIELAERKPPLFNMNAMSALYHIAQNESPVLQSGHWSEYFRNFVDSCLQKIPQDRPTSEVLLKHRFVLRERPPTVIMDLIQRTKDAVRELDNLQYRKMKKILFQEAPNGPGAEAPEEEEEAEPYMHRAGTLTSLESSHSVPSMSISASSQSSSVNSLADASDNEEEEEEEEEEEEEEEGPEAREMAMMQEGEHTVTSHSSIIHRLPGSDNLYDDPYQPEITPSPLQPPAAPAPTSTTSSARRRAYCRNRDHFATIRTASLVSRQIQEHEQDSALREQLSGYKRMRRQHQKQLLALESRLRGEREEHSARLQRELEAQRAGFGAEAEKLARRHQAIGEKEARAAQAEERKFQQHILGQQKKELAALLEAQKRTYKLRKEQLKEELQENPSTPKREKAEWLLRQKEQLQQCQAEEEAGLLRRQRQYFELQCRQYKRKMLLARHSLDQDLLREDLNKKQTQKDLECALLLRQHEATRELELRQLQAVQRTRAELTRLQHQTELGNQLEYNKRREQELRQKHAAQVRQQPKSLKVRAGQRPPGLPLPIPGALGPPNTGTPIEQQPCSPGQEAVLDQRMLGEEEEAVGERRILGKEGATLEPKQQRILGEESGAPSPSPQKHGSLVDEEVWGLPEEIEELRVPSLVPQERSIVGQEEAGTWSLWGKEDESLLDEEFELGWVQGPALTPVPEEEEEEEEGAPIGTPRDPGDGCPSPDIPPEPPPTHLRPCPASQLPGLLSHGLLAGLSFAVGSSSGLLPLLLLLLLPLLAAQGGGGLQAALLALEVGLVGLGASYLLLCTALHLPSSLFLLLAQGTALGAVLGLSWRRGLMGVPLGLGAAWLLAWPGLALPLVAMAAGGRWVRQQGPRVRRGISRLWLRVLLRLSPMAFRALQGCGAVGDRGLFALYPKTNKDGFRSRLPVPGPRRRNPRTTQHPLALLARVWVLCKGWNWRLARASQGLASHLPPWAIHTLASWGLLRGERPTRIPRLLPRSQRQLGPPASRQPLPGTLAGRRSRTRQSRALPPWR
Chain of FGFR3(K650M) (P22607 whole entry K650M): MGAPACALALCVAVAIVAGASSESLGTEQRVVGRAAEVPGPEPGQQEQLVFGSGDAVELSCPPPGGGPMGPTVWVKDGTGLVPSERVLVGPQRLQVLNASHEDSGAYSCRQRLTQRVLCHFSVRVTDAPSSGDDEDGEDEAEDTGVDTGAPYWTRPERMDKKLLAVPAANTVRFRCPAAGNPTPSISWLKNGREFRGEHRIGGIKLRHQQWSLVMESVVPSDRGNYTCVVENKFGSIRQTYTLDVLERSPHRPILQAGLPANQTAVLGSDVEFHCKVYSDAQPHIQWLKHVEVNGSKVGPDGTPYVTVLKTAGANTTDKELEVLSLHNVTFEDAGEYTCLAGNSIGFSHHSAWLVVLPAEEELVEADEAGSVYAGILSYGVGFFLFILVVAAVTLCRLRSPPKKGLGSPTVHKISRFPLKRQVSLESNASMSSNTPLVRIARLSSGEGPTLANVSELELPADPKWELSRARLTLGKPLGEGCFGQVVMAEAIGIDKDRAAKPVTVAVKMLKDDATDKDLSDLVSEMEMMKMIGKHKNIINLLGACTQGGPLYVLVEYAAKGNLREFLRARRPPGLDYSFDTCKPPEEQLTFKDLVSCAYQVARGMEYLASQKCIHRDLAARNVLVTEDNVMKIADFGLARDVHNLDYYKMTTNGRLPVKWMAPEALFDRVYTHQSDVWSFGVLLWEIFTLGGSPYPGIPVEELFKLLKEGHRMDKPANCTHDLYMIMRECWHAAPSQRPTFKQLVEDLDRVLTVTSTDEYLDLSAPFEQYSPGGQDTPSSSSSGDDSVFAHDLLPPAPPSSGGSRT
Chain of HIPK1 (Q86Z02 whole entry): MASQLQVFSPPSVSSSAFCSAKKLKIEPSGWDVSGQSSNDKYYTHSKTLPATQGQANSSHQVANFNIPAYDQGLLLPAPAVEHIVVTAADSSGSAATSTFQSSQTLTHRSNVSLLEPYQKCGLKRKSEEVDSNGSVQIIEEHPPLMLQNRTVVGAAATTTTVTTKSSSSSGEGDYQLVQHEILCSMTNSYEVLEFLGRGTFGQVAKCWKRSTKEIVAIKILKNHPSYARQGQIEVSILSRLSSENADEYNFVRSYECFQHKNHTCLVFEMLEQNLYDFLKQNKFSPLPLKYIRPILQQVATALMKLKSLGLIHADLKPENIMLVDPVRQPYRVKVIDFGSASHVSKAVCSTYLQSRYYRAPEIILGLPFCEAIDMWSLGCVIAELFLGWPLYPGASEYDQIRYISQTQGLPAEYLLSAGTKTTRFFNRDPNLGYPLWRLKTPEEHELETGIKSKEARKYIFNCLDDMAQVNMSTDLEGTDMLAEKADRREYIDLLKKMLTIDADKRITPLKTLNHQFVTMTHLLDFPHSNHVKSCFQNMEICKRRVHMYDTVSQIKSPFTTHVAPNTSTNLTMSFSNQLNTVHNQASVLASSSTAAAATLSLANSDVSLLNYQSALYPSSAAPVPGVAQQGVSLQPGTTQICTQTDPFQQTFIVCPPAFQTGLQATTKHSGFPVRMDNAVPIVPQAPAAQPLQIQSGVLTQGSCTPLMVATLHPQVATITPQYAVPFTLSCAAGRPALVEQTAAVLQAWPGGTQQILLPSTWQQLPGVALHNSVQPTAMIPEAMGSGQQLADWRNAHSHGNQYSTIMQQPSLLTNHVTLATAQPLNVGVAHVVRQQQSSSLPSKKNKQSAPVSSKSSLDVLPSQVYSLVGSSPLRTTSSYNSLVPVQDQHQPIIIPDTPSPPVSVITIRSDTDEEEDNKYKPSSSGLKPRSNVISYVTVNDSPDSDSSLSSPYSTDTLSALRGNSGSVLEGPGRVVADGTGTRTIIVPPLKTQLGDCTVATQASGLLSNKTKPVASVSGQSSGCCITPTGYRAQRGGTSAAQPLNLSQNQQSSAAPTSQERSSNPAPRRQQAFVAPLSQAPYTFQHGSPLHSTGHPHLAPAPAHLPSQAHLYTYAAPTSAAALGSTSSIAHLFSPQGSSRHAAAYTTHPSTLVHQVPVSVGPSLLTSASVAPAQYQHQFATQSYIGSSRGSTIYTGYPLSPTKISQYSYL
T1 sequence (P19784 whole entry): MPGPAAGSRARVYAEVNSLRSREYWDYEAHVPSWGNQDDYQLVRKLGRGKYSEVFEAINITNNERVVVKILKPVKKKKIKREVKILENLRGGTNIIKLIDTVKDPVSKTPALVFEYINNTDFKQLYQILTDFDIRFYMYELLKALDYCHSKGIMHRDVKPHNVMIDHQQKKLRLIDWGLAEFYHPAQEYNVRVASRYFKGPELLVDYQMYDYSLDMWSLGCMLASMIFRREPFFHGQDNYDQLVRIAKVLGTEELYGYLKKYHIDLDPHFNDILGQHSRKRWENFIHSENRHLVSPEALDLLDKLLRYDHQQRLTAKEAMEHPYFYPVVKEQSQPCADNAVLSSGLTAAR
T1 sequence (P67870 whole entry partner): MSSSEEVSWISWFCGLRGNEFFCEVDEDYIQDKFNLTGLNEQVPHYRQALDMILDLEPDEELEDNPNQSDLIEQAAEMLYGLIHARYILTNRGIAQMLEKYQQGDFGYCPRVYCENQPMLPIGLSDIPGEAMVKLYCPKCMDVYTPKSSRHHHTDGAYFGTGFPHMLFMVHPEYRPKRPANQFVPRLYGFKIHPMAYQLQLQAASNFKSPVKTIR
T6 sequence (P07948 whole entry, canonical isoform): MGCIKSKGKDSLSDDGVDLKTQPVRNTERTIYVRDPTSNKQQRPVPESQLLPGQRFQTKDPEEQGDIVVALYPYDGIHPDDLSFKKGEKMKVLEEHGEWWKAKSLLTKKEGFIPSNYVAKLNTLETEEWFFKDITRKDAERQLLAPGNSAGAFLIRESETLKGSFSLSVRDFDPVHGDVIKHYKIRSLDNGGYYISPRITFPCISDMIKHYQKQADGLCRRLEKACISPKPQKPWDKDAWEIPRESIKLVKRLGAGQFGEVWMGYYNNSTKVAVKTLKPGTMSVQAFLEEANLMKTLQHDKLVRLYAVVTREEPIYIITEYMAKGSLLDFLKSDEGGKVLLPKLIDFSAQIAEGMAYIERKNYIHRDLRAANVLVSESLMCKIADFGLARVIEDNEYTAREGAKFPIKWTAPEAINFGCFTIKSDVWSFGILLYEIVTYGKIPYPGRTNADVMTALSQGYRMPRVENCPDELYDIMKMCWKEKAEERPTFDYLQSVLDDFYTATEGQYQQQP

c1cc(-c2ccc3[nH]ncc3c2)ccn1 [TG693, 5-(4-pyridinyl)-1H-indazole]
inhibition at 1 µM (AKT3): -4.6%
inhibition at 1 µM (ALK): 6.1%
inhibition at 1 µM (CDK2/CycE1): 18.1%
inhibition at 1 µM (CDK3/CycE1): 11.4%
inhibition at 1 µM (CDK4/CycD3): 5.4%
inhibition at 1 µM (CK2α2/β): 14.6%
inhibition at 1 µM (CaMK2α): -3.3%
inhibition at 1 µM (EGFR(L861Q)): -5.4%
inhibition at 1 µM (EGFR(T790M)): -0.2%
inhibition at 1 µM (EPHA3): 0.4%
inhibition at 1 µM (EPHB2): 0.3%
inhibition at 1 µM (FAK): 3.6%
inhibition at 1 µM (FGFR3(K650M)): 7.8%
inhibition at 1 µM (FMS): 2.6%
inhibition at 1 µM (HIPK1): -3.5%
inhibition at 1 µM (Haspin): 92.8%
inhibition at 1 µM (IGF1R): 3.3%
inhibition at 1 µM (INSR): -5.9%
inhibition at 1 µM (JNK1): -18%
inhibition at 1 µM (KIT(D816Y)): -1.7%
inhibition at 1 µM (LYNb): 0.8%
inhibition at 1 µM (MST4): 4.1%
inhibition at 1 µM (PAK5): -14%
inhibition at 1 µM (PIM2): -3.5%
inhibition at 1 µM (PKCθ): -12.6%
inhibition at 1 µM (PLK3): 1.7%
inhibition at 1 µM (QIK): 3.4%
inhibition at 1 µM (SRC): 3.2%
inhibition at 1 µM (TAOK2): 2%
inhibition at 1 µM (TIE2): 9.7%
inhibition at 1 µM (WNK3): -4.9%
